# Experimental data taken from patent publication US10882867B2, “Forms and compositions of a MK2 inhibitor” (Celgene CAR LLC, priority 2017, dated 2021).
# What was measured:
# [1] = DSC and TGA thermal analysis; settings: for % loss (TGA): screen sample; for endotherm observed (DSC): complex of Compound 1 with co-former, sample from primary salt/co-crystal screen
# [2] = Approximate solubility of Compound 1 Form A at room temperature; type: physicochemical; settings: for solubility at 1 day: thermodynamic from solid
# Excerpt: Solubility of Form A was approximated in the following solvents: acetonitrile (ACN), ACN/water (1:1), n-butanol (n-BuOH), absolute ethanol (EtOH), ethanol/water (1:1), methanol (MeOH), 2-propanol (IPA), ethyl acetate (EtOAc), methyl acetate (MeOAc), dichloromethane (DCM), methyl ethyl ketone (MEK), methyl t-butyl ether (MTBE), heptane, toluene, methyl acetate (MeOAc), isopropyl acetate (IPAc), methyl isobutyl ketone (MIBK), 2-methyltetrahydrofuran (2-MeTHF), 1,4-dioxane, tetrahydrofuran (THF), THF/water (1:1), water, dimethyl sufoxide (DMSO), dimethylacetamide (DMA, DMAc), and N-methylpyrrolidone (NMP). A weighed sample of Form A (about 50 mg) was treated with a known volume of a test solvent. The resulting mixture was agitated for 1 day at room temperature. If all of the solids appeared to be dissolved by visual inspection, the estimated solubility was calculated based on the total volume of solvent used to give a complete solution. If solids were present, a known volume of filtrate was evaporated to dryness and the weight of the residue was measured to estimate the solubility.
# [3] = Dynamic vapor sorption (DVS) hygroscopicity; type: physicochemical; settings: for Hygroscopicity: DVS, 0 to 90% RH
# Experimental: Hygroscopicity was determined on a Surface Measurement Systems DVS. A sample size of 5-20 mg was loaded into the DVS instrument sample pan and the sample was analyzed on a DVS automated sorption analyzer at room temperature. The relative humidity was increased from 0% to 90% RH at 10% RH step, then decreased in a similar manner to accomplish a full adsorption/desorption cycle. FIGS. 29-33 depict the DVS isotherm plots of Forms A, C, D, E, and I.
# [4] = Form conversion (form transfer) experiments: slurry, compression, heating, humidity cycle; type: physicochemical
# Experimental: Form conversion experiments were performed to determine interconversion among solid forms.
# The stability of Form A was further characterized by compression test and form transfer experiments (Table 6). Upon application of 2000-psi pressure for about 1 minute, the material was still Form A, with broader diffraction peaks (FIG. 42(c)).
# [5] = between 0 and 90% RH, room temperature
# [6] = 0-90-0% RH cycle in DVS, 25° C.
# [7] = compression, 2000 psi, RT, 1 min
# [8] = heating in KF oven, 190° C., ~10 min
structure (smiles),measurement,setting,value
O=C(O)c1ccc2ccccc2c1O [1-hydroxy-2-naphthoic acid (Form 1)],% loss (TGA),[1]; up to 150° C.,10.82% loss up to 150 °C
O=C(O)c1ccc2ccccc2c1O [1-hydroxy-2-naphthoic acid (Form 2)],endotherm observed (DSC),[1],endotherm observed at 169.60 °C
same,% loss (TGA),[1]; up to 150° C.,1.86% loss up to 150 °C
"CCOCc1cnc(Cl)nc1Oc1ccc2c(ccc3sc4c(c32)NC[C@@H](C)NC4=O)n1 [Form A, (R)-3-((2-chloro-5-(ethoxymethyl)pyrimidin-4-yl)oxy)-10-methyl-9,10,11,12-tetrahydro-8H-[1,4]diazepino[5′,6′:4,5]thieno[3,2-f]quinolin-8-one]",solubility at 1 day,"[2]; 2-MeTHF (2-methyltetrahydrofuran), organic solvent or mixture, 2-MeTHF, 1 day",< 2000 µg/mL
same,solubility at 1 day,"[2]; ACN (acetonitrile), organic solvent or mixture, ACN, 1 day",< 2000 µg/mL
same,solubility at 1 day,"[2]; ACN/water (1:1), aqueous with cosolvent or surfactant or cyclodextrin, ACN/water (1:1), 1 day",< 1000 µg/mL
same,solubility at 1 day,"[2]; DCM (dichloromethane), organic solvent or mixture, DCM, 1 day",8000 to 16000 µg/mL
same,Approximate Solubility,"[2]; DCM, 1 day",<9000 µg/mL
same,solubility at 1 day,"[2]; DMA (dimethylacetamide), organic solvent or mixture, DMA, 1 day",> 50000 µg/mL
same,Approximate Solubility,"[2]; DMA, 1 day",>50000 µg/mL
same,Approximate Solubility,"[2]; DMSO, 1 day",>50000 µg/mL
same,solubility at 1 day,"[2]; DMSO, organic solvent or mixture, 1 day",> 50000 µg/mL
same,solubility at 1 day,"[2]; EtOAc (ethyl acetate), organic solvent or mixture, EtOAc, 1 day",< 1000 µg/mL
same,solubility at 1 day,"[2]; EtOH (absolute ethanol), organic solvent or mixture, EtOH, 1 day",< 2000 µg/mL
same,solubility at 1 day,"[2]; EtOH/water (1:1), aqueous with cosolvent or surfactant or cyclodextrin, EtOH/water (1:1), 1 day",< 1000 µg/mL
same,solubility at 1 day,"[2]; IPA (2-propanol), organic solvent or mixture, IPA, 1 day",< 1000 µg/mL
same,solubility at 1 day,"[2]; IPAc (isopropyl acetate), organic solvent or mixture, IPAc, 1 day",< 1000 µg/mL
same,solubility at 1 day,"[2]; MEK (methyl ethyl ketone), organic solvent or mixture, MEK, 1 day",> 2000 µg/mL
same,Approximate Solubility,"[2]; MEK, 1 day",<3000 µg/mL
same,solubility at 1 day,"[2]; MIBK (methyl isobutyl ketone), organic solvent or mixture, MIBK, 1 day",< 1000 µg/mL
same,solubility at 1 day,"[2]; MTBE (methyl t-butyl ether), organic solvent or mixture, MTBE, 1 day",< 1000 µg/mL
same,solubility at 1 day,"[2]; MeOAc (methyl acetate), organic solvent or mixture, MeOAc, 1 day",< 2000 µg/mL
same,solubility at 1 day,"[2]; MeOH (methanol), organic solvent or mixture, MeOH, 1 day",< 3000 µg/mL
same,solubility at 1 day,"[2]; NMP (N-methylpyrrolidone), organic solvent or mixture, NMP, 1 day",> 50000 µg/mL
same,Approximate Solubility,"[2]; NMP, 1 day",>50000 µg/mL
same,solubility at 1 day,"[2]; THF (tetrahydrofuran), organic solvent or mixture, THF, 1 day",8000 to 16000 µg/mL
same,Approximate Solubility,"[2]; THF, 1 day",<10000 µg/mL
same,Approximate Solubility,"[2]; THF/water (1:1), 1 day",<16000 µg/mL
same,solubility at 1 day,"[2]; THF/water (1:1), aqueous with cosolvent or surfactant or cyclodextrin, THF/water (1:1), 1 day",8000 to 16000 µg/mL
same,Approximate Solubility,"[2]; acetone, 1 day",<3000 µg/mL
same,solubility at 1 day,"[2]; acetone, organic solvent or mixture, 1 day",> 2000 µg/mL
same,solubility at 1 day,"[2]; heptane, organic solvent or mixture, 1 day",< 1000 µg/mL
same,solubility at 1 day,"[2]; n-BuOH (n-butanol), organic solvent or mixture, n-BuOH, 1 day",< 1000 µg/mL
same,solubility at 1 day,"[2]; organic solvent or mixture, all other solvents tested (not DMSO, DMA, NMP, THF/water, THF, DCM, acetone, 1,4-dioxane, MEK)",< 3000 µg/mL
same,solubility at 1 day,"[2]; toluene, organic solvent or mixture, 1 day",< 1000 µg/mL
same,solubility at 1 day,"[2]; water, 1 day",< 1000 µg/mL
same,Hygroscopicity,[3],slightly hygroscopic
same,DVS water uptake,[3]; [5],about 2.5 wt %
same,DVS water uptake,"[3]; between 0 and 90% RH, room temperature, listed as A",DVS: ~2.5 wt % water
same,Resulting Form(s),[4]; [6],No form change
same,Resulting Form(s),[4]; [7],still Form A
same,Resulting Form(s),[4]; [8],confirmed to be Form A
"CCOCc1cnc(Cl)nc1Oc1ccc2c(ccc3sc4c(c32)NC[C@@H](C)NC4=O)n1 [Form B, (R)-3-((2-chloro-5-(ethoxymethyl)pyrimidin-4-yl)oxy)-10-methyl-9,10,11,12-tetrahydro-8H-[1,4]diazepino[5′,6′:4,5]thieno[3,2-f]quinolin-8-one]",Resulting Form(s),[4]; [7],"mainly Form B, with a small amount of Form A"
same,Resulting Form(s),"[4]; compression, 2000 psi, RT, 1 min, listed as B",B + A
same,Resulting Form(s),[4]; [8],confirmed to be Form A
same,Form change upon storage,[4]; storage in vials,convert to Form A
"CCOCc1cnc(Cl)nc1Oc1ccc2c(ccc3sc4c(c32)NC[C@@H](C)NC4=O)n1 [Form C, (R)-3-((2-chloro-5-(ethoxymethyl)pyrimidin-4-yl)oxy)-10-methyl-9,10,11,12-tetrahydro-8H-[1,4]diazepino[5′,6′:4,5]thieno[3,2-f]quinolin-8-one]",Hygroscopicity,[3],hygroscopic
same,DVS water uptake,[3]; [5],approximately 4.1 wt %
same,DVS water uptake,"[3]; between 0 and 90% RH, room temperature, listed as C",DVS: ~4.1 wt % water
same,Resulting Form(s),[4]; [6],E + C + peaks
same,Resulting Form(s),[4]; [7],partially convert to Form E
same,Resulting Form(s),"[4]; compression, 2000 psi, RT, 1 min, listed as C",E + C + peaks
same,Resulting Form(s),[4]; [8],a mixture of Form A and Form C
same,Resulting Form(s),"[4]; heating in KF oven, 190° C., ~10 min, listed as C",A + C (shifted)
same,Resulting form,"[4]; slurry in THF/water (5:95), time not given",convert to Form E
"CCOCc1cnc(Cl)nc1Oc1ccc2c(ccc3sc4c(c32)NC[C@@H](C)NC4=O)n1 [Form D, (R)-3-((2-chloro-5-(ethoxymethyl)pyrimidin-4-yl)oxy)-10-methyl-9,10,11,12-tetrahydro-8H-[1,4]diazepino[5′,6′:4,5]thieno[3,2-f]quinolin-8-one]",Hygroscopicity,[3],slightly hygroscopic
same,DVS water uptake,[3]; [5],about 2.6 wt %
same,DVS water uptake,"[3]; between 0 and 90% RH, room temperature, listed as D",DVS: ~2.6 wt % water
same,Resulting Form(s),[4]; [6],No form change
same,Resulting Form(s),[4]; [7],mainly Form D
same,Resulting Form(s),"[4]; compression, 2000 psi, RT, 1 min, listed as D",D (+ A?)
same,Resulting Form(s),[4]; [8],confirmed to be Form A
"CCOCc1cnc(Cl)nc1Oc1ccc2c(ccc3sc4c(c32)NC[C@@H](C)NC4=O)n1 [Form E, (R)-3-((2-chloro-5-(ethoxymethyl)pyrimidin-4-yl)oxy)-10-methyl-9,10,11,12-tetrahydro-8H-[1,4]diazepino[5′,6′:4,5]thieno[3,2-f]quinolin-8-one]",DVS water uptake,[3]; between 0 and 60% RH,about 2.2 wt %
same,DVS water uptake,[3]; [5],7.5 wt %
same,DVS water uptake,"[3]; between 0 and 90% RH, room temperature, listed as E",DVS: ~7.5 wt % water
same,Resulting Form(s),[4]; [6],No form change
same,Resulting form,"[4]; THF/water (5/95), long periods of equilibration",converted to Form A
same,Resulting Form(s),[4]; [7],still Form E
same,Resulting Form(s),[4]; [8],confirmed to be Form E
same,Resulting form,"[4]; slurry in acetone, temperature and time not given",converts to Form A
"CCOCc1cnc(Cl)nc1Oc1ccc2c(ccc3sc4c(c32)NC[C@@H](C)NC4=O)n1 [Form H, (R)-3-((2-chloro-5-(ethoxymethyl)pyrimidin-4-yl)oxy)-10-methyl-9,10,11,12-tetrahydro-8H-[1,4]diazepino[5′,6′:4,5]thieno[3,2-f]quinolin-8-one]",Resulting Form(s),"[4]; slurry in THF/water (5:95), RT, 8 days",A + I
same,Resulting Form(s),"[4]; slurry in water, RT, 4 days",generated Form I
"CCOCc1cnc(Cl)nc1Oc1ccc2c(ccc3sc4c(c32)NC[C@@H](C)NC4=O)n1 [Form I, (R)-3-((2-chloro-5-(ethoxymethyl)pyrimidin-4-yl)oxy)-10-methyl-9,10,11,12-tetrahydro-8H-[1,4]diazepino[5′,6′:4,5]thieno[3,2-f]quinolin-8-one]",DVS water uptake,[3]; [5],Approximately 1.5 wt %
same,Resulting Form(s),[4]; [6],change to Form A
O=C1O[C@H]([C@@H](O)CO)C(O)=C1O [L-ascorbic acid],endotherm observed (DSC),[1],endotherm observed at 88.26 °C
same,% loss (TGA),[1]; up to 100° C.,2.55% loss up to 100 °C
NCCCC[C@H](N)C(=O)O [L-lysine],% loss (TGA),[1]; from 150 to 250° C.,12.61% loss from 150 to 250 °C
same,% loss (TGA),[1]; up to 150° C.,7.32% loss up to 150 °C
O=C(O)c1cc(O)ccc1O [gentisic acid],endotherm observed (DSC),[1],endotherm observed at 115.17 °C
same,% loss (TGA),[1]; up to 120° C.,1.69% loss up to 120 °C
O=C(O)/C=C\C(=O)O [maleic acid],endotherm observed (DSC),[1],endotherm observed at 153.89 °C
same,% loss (TGA),[1]; up to […] C.,9.87% loss up to 155 °C
CS(=O)(=O)O [methanesulfonic acid],endotherm observed (DSC),[1],endotherm observed at 157.01 °C
same,% loss (TGA),[1]; up to 160° C.,8.28% loss up to 160 °C
Cc1ccc(S(=O)(=O)O)cc1 [p-toluenesulfonic acid],% loss (TGA),[1]; up to 130° C.,3.50% loss up to 130 °C
O=C1NS(=O)(=O)c2ccccc21 [saccharin],% loss (TGA),[1]; up to […] C.,3.70% loss up to 165 °C
N#CS [thiocyanic acid],% loss (TGA),[1]; from 100 to 200° C.,6.54% loss from 100 to 200 °C
same,% loss (TGA),[1]; up to 100° C.,3.04% loss up to 100 °C
